Source: patent US20050186137A1, “Novelty-induced hypophagia-based assays for identifying agents to treat anxiety and depression” (priority 2003, published 2005)

Assays:
BALB/cJ mice [1] = experiment: Novelty induced hypophagia test; assay type: in vivo, mouse
Experimental: (§1) For chronic fluoxetine studies in BALB/cJ mice, 60 male BALB/cJ mice were tested in the OF for 30 min on days 19 or 20 of chronic fluoxetine treatment. Mice were then pretested and tested in the modified FST on days 21 and 22, respectively. Animals were then allowed to adapt to being singly housed, and were trained for NIH on days 25-27. Home cage and novel cage testing occurred on days 28 and 29, respectively. Mice were then assessed for PPI on days 34 or 35.
(§2) Studies of subchronic fluoxetine were conducted using separate groups of 60 male BALB/cJ mice to prevent fluoxetine treatment from exceeding one week. One group was tested in the OF after one day of subchronic fluoxetine treatment. Mice were then pretested after 6 and tested after 7 days of subchronic fluoxetine treatment in the modified FST. A second group of BALB/cJ mice began fluoxetine treatment after being singly housed. They were then tested in the NIH test after 4 (home) and 5 (novel) days of subchronic fluoxetine treatment. A third group was tested for PPI after one or two days of subchronic fluoxetine treatment.
Novelty induced hypophagia test: Mice were singly housed several days before training began. For three consecutive days of training, mice were presented with diluted (1:3; milk:water) sweetened condensed milk (Carnation) in pipettes in the home cage for 30 min. Testing occurred on days 4 and 5 when mice were presented with the milk, and latency to drink and the volume consumed were recorded every five minutes for 30 min. On day 4, testing occurred in the home cage under dim lighting (approx. 50 lux). Mice were briefly removed from the cage to position pipettes, and testing began when mice were returned to their cages. On day 5, mice were placed into new cages of the same dimensions without shavings under bright lighting (approx. 1200 lux). White paper was placed under cages to enhance aversiveness on day 5.
Novelty induced hypophagia test: For latency scores, a maximum cut-off of 600 sec was used. Two-factor ANOVAs with home/novel cage condition as a within-subjects factor and fluoxetine as a between-subjects factor were applied to latency values. Main effects of fluoxetine or significant interactions of fluoxetine and home/novel cage condition were resolved using post-hoc ANOVAs with adjusted p-values and/or Newman-Keuls post-hoc tests. For consumption data, a three-factor ANOVA with block (5 min intervals) and home/novel cage condition as within-subjects factors and fluoxetine as a between-subjects factor was used to assess whether the novel cage was sufficiently anxiogenic to reduce consumption. Two-factor ANOVAs with block as a within-subjects factor and fluoxetine as a between-subjects factor were applied separately to consumption values for the home and the novel cage. Main effects of fluoxetine or significant interactions were resolved using post-hoc ANOVAs with adjusted p-values and/or Newman-Keuls post-hoc tests.

[2] = administration of fluoxetine in the drinking water; cited from earlier work
[3] = tested on: BALB/cJ, DBA/2J, C57BL/6J, and 129SvEv mice; experiment: Modified forced swim test, strain comparison; assay type: in vivo, mouse
Experimental: (§3) For the strain comparison study, 36 male mice of four strains (BALB/cJ, DBA/2J, C57BL/6J, 129SvEv) were subjects for a total of 144 mice. Mice were tested in the OF beginning on day 30 or 33 of chronic fluoxetine treatment. Mice were tested for 15 min on three consecutive days to maximize activity levels. Mice were then tested in the modified FST on day 36 or 37.
Modified forced swim test: Mice were placed into 19 cm diameter plastic buckets which were 23 cm deep filled with 23°-25° C. water, and videotaped for six minutes. Only the last four minutes were scored for four measures: swimming, immobility, climbing, or other. The predominant behavior was recorded every 5 sec. For chronic and subchronic fluoxetine studies in BALB/cJ mice, mice were pre-exposed to the FST for 6 min 24 hours before test day to increase sensitivity for detecting antidepressant behavioral effects (Borsini et al., 1989).
Modified forced swim test: Two-factor ANOVAs with fluoxetine as a between-subjects factor and block (1 min intervals) as a within-subject factor were applied to three different measures: swimming, immobility, and climbing. Significant main effects of fluoxetine and interactions were resolved using post-hoc ANOVAs with adjusted p-values, and/or Newman-Keuls post-hoc tests.

BALB/cJ mice [4] = experiment: Open field test, chronic vs. subchronic fluoxetine; assay type: in vivo, mouse
Experimental: as §1, §2
(§4) Open field test: Motor activity was quantified in four Plexiglas OF boxes 43 x 43 cm (MED Associates, Georgia, Vt.). Two sets of 16 pulse-modulated infrared photobeams were placed on opposite walls 2.5-cm apart to record x-y ambulatory movements. Activity chambers were computer interfaced for data sampling at 100-ms resolution. The computer defined grid lines that divided each OF into center and surround regions, with each of four lines being 11 cm from each wall. Dependent measures were the number of entries into the center, the distance traveled in the center, total time spent in the center, and distance traveled in the center divided by total distance traveled. Overall motor activity was quantified as the total distance traveled (cm).
(§5) Open field test: For Experiment 1, two-factor ANOVAs with fluoxetine as a between-subject factor and day as a within-subject factor were applied to five measures for each strain: time spent in the center, distance traveled in the center, center distance/total distance traveled, entries into the center, and total distance traveled. Main effects of fluoxetine or significant interactions of fluoxetine and day were resolved using post-hoc ANOVAs with adjusted p-values and/or Newman-Keuls post-hoc tests. Subchronic and chronic experiments in Balb/cJ mice were analyzed using one-way ANOVAs with fluoxetine as a between-subjects factor and Newman-Keuls post-hoc tests for the same variables. Because data deviated substantially from a normal distribution due to low activity levels of Balb/cJ mice, analyses were applied to log transformed data.
(§6) Remaining significant effects of fluoxetine indicate independence between measures of locomotor activity and center measures.

[5] = tested on: BALB/cJ, DBA/2J, C57BL/6J, and 129SvEv mice; experiment: Open field test, strain comparison; assay type: in vivo, mouse; conditions: for center measures: chronic fluoxetine 5 or 10 mg/kg/day
Experimental: as §3, §4, §5, §6

[6] = subchronic (4-5 days) fluoxetine
[7] = BALB/cJ mice, chronic 10 mg/kg/day, relative to 5 mg/kg/day and controls
[8] = chronic 18 mg/kg/day vs controls
[9] = 129SvEv mice, chronic 5 and 10 mg/kg/day, day 1, relative to controls

CNCCC(Oc1ccc(C(F)(F)F)cc1)c1ccccc1 (stereo not shown) [fluoxetine]
milk consumption in the home cage, first block (0-5 min) (BALB/cJ mice [1]; chronic 25 mg/kg/day): increased milk consumption compared to control
milk consumption in the novel cage, first block (0-5 min) (BALB/cJ mice [1]; chronic 18 and 25 mg/kg/day): increased milk consumption compared to the 0 and 10 mg/kg/day doses
latency difference scores (novel minus home) (BALB/cJ mice [1]; chronic 18 and 25 mg/kg/day vs control): control animals exhibited significantly larger difference scores
latency to drink milk in the home cage (BALB/cJ mice [1]; chronic fluoxetine): reduced the latency to drink milk in the novel, but not the home cage
latency to drink in the novel cage (BALB/cJ mice [1]; chronic fluoxetine, all three doses (10, 18, 25 mg/kg/day)): reduced the latency to drink relative to control in a dose-related fashion
consumption in the home cage, post-hoc tests (BALB/cJ mice [1]; subchronic (4-5 days) 25 mg/kg/day): only a trend for the 25 mg/kg/day dose to increase consumption relative to control
latency to drink (BALB/cJ mice [1]; [6]): no effect on any measure of latency
milk consumption (BALB/cJ mice [1]; [6]): no effect
time by which steady state blood levels have been achieved [2]: ≤ 5 days
immobility [3, 7]: decreased immobility
swimming [3, 7]: increased swimming
sensitivity to chronic treatment in the modified FST across strains ([3]; BALB/cJ, DBA/2J, C57BL/6J, 129SvEv, chronic 5 or 10 mg/kg/day): BALB/cJ was the only strain showing sensitivity
climbing ([3]; chronic fluoxetine 5 or 10 mg/kg/day): No effects
log of center entries (BALB/cJ mice [4]; chronic 10 mg/kg/day): lower values than groups receiving 18 mg/kg/day and 25 mg/kg/day
center entries, without logarithmic transformation (BALB/cJ mice [4]; [8]): made more center entries
center/total distance, without logarithmic transformation (BALB/cJ mice [4]; [8]): trend for higher center/total distance values
log of center distance (BALB/cJ mice [4]; [8]): significantly higher values than controls
log of center distance/log total distance traveled (BALB/cJ mice [4]; [8]): significantly higher values than controls
log of center entries (BALB/cJ mice [4]; [8]): significantly higher values than controls
log of time in the center (BALB/cJ mice [4]; chronic fluoxetine): no significant effect of drug
total locomotor activity (log transformed) (BALB/cJ mice [4]; chronic fluoxetine 10, 18, 25 mg/kg/day, 30 min test): did not alter total locomotor activity
total locomotor activity, without logarithmic transformation (BALB/cJ mice [4]; chronic fluoxetine, all doses): remain unaffected by all doses of drug
any measures in the OF (BALB/cJ mice [4]; subchronic (one day) fluoxetine, untransformed or log transformed): no differences in any measures in the OF
locomotor activity ([5]; 129SvEv mice, chronic 10 mg/kg/day, relative to both other doses on day 1 and to 5 mg/kg/day on day 3): reduced locomotor activity
time in the center ([5]; 129SvEv mice, chronic 5 and 10 mg/kg/day): reduced time in the center relative to control
center entries [5, 9]: reduced
distance traveled in the center [5, 9]: reduced the distance traveled in the center
center measures ([5]; BALB/cJ mice): produced no changes
locomotor activity ([5]; BALB/cJ mice, chronic fluoxetine 5 or 10 mg/kg/day in drinking water, three consecutive days): no changes in locomotor activity
locomotor activity ([5]; C57BL/6J mice, chronic 10 mg/kg/day, relative to controls): reduced locomotor activity overall
entries into the center ([5]; C57BL/6J mice, chronic 5 and 10 mg/kg/day, relative to control): overall reduction in the number of entries into the center
center measures ([5]; DBA/2J mice): produced no changes
locomotor activity ([5]; DBA/2J mice, chronic fluoxetine (10 mg/kg/day vs controls on day 3)): trend towards increased locomotor activity
center/total distance traveled ([5]; any of the four strains, chronic fluoxetine): no effects
